From US5869484A, “Phenylcarbamate derivatives suitable to the use as anticholinesterase substances” (priority 1994, dated 1999)

Tests used:
AChE hRBC = molecular target: T1, AChE hRBC (Homo sapiens, UniProt P22303); test: biochemical; conditions: for potency compared with eptastigmine, physostigmine or tacrine: comparison from Table 1; for AChE inhibitory activity and selectivity: AChE versus BuChE, Table 1
T1 construct: purchased Sigma Chemical; host or cells: human erythrocytes
Procedure: (§1) The incubation time between enzyme and product used for the determinations has been 10'.
(§2) The acetylcholinesterase from human erythrocytes (AChE hRBC), the acetylcholinesterase from Electric Eel (AChE E.eel) and the butyrylcholinesterase from human serum (BuChE hserum) coming from the Sigma Chemical have been used.

BuChE hserum = molecular target: T2, BuChE hserum (Homo sapiens, UniProt P06276); test: Inhibition of butyrylcholinesterase from human serum (Ellman method); type: biochemical; conditions: for activity on the BuChE: Table 1
T2 construct: purchased Sigma Chemical; host or cells: human serum
Procedure: as §1, §2

AChE E. eel = molecular target: T3, AChE E. eel (Electrophorus electricus, UniProt O42275); test: biochemical; design: species or system Electric Eel
T3 construct: purchased Sigma Chemical
Procedure: as §1, §2

[1] = Acute toxicity (single administration) in rat; conditions: in vivo
[2] = Acute toxicity (single administration) in mouse; conditions: in vivo
[3] = prior art, Eur. Neuropsychopharmacol. 1(3) (1991); cited from earlier work
[4] = iv, read-out: Toxicity tests (LD50), rat iv
[5] = po, os, read-out: Toxicity tests (LD50), rat os

T1 sequence (P22303 32-617 isoform P22303-2 limits assumed): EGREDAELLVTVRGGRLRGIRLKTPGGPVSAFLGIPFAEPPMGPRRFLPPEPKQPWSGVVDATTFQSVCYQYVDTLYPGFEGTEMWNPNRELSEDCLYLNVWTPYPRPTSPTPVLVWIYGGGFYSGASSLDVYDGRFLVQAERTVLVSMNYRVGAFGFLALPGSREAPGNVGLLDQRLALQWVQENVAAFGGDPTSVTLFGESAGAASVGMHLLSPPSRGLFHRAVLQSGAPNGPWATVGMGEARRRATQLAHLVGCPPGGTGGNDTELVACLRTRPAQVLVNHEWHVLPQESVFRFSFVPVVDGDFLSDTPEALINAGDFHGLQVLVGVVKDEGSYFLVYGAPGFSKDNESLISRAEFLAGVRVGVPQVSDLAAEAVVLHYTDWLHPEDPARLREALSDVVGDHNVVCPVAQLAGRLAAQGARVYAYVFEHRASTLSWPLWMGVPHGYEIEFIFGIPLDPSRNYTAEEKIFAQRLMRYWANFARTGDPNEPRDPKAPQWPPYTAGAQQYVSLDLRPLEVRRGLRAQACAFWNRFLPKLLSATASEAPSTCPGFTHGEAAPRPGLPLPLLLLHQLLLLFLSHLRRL
T2 sequence (P06276 29-602): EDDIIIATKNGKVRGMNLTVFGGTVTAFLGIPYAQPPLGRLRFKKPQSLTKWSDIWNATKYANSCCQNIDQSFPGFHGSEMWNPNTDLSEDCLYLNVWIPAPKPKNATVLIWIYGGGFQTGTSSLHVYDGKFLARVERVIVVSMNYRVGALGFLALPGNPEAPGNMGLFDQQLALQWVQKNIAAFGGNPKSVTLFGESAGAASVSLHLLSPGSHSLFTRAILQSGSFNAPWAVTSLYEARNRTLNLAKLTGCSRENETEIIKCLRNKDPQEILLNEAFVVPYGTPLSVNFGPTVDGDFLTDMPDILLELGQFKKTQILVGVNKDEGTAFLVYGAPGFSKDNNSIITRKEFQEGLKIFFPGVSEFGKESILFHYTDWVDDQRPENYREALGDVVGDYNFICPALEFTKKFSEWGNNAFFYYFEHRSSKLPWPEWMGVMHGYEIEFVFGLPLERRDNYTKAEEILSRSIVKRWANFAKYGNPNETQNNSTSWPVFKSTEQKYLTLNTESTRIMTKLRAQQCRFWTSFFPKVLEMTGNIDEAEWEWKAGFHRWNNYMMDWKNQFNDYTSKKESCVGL
T3 sequence (O42275 24-633): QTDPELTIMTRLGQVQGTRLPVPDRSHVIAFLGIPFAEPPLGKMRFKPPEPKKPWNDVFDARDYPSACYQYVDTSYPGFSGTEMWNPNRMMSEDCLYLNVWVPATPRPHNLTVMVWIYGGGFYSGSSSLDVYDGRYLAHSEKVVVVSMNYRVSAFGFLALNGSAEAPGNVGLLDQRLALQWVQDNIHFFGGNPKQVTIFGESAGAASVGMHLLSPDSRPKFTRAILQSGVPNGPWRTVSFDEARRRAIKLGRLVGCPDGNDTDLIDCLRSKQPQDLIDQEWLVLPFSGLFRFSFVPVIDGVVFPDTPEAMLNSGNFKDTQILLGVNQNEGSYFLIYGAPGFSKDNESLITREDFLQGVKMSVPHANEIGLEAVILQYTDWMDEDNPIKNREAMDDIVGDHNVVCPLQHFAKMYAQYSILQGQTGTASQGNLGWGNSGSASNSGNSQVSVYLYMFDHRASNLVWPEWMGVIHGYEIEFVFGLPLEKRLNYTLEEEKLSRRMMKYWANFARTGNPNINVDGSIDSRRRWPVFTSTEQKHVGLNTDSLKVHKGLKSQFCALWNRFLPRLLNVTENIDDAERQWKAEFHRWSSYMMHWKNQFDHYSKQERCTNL

SMILES	IC50 (AChE hRBC) [µM]	IC50 (BuChE hserum) [µM]	potency compared with eptastigmine, physostigmine or tacrine (AChE hRBC)	IC50 (AChE E. eel) [µM]	AChE inhibitory activity and selectivity (AChE hRBC)	activity on the BuChE (BuChE hserum)	other results
CCN(C(=O)Oc1cccc(C(C)(C)CN(C)C)c1)c1ccc(OC)cc1 [Ex. 36, 3-[(1-dimethylamino-2-methyl)prop-2-yl]-N-ethyl-N-(4-methoxy)phenyl phenylcarbamate]	1.1	21	–	–	–	–	–
COc1cccc(NC(=O)Oc2cccc(C(C)(C)CN(C)C)c2)c1 [Ex. 22, 3-[(1-dimethylamino-2-methyl)prop-2-yl]-N-(3-methoxy)phenyl phenylcarbamate]	0.21	0.6	–	–	–	–	–
CN(C)CC(C)(C)c1cccc(OC(=O)Nc2ccccc2)c1 [Ex. 19, 3-[1(1-dimethylamino-2-methyl)prop-2-yl]-N-phenyl phenylcarbamate]	0.1	0.23	equal or even superior to that of eptastigmine or of physostigmine	–	–	–	–
CC(CN(C)C)c1cccc(OC(=O)NCCCCCCCCN2CCOCC2)c1 (stereo not shown) [Ex. 8, 3-[(1-dimethylamino)prop-2-yl]-N-[8-(4-morpholinyl)octyl]-phenyl carbamate]	0.22	0.014	–	1.3	–	–	–
CN(C)CC(C)(C)c1cccc(OC(=O)NCCCCCCCCCCN2CCOCC2)c1 [Ex. 18, 3-[(1-dimethylamino-2-methyl)prop-2-yl]-N-[10-(4-morpholinyl)decyl]-phenylcarbamate]	0.1	–	equal or even superior to that of eptastigmine or of physostigmine	–	–	–	–
C[C@H]1CN(CCCCCCCCNC(=O)Oc2cccc(C(C)(C)CN(C)C)c2)C[C@H](C)O1 (relative stereo) [Ex. 3, 3-[(1-dimethylamino-2-methyl)-prop-2-yl]-N-[8-[4-(trans 2,6-dimethyl)morpholinyl]octyl]-phenylcarbamate]	0.2	0.02	–	1.2	–	–	–
CCCCCCCNC(=O)Oc1cccc(C(C)(C)CN(C)C)c1 [Ex. 5, 3-[(1-dimethylamino-2-methyl)prop-2-yl]-N-heptyl-phenyl carbamate]	0.18	0.03	equal or even superior to that of eptastigmine or of physostigmine	0.12	–	–	–
CCCCN(C(=O)Oc1cccc(C(C)(C)CN(C)C)c1)c1ccccc1 [Ex. 32, 3-[(1-dimethylamino-2-methyl)prop-2-yl]-N-butyl-N-phenyl phenylcarbamate]	0.42	70	–	–	–	–	–
Cc1cccc(NC(=O)Oc2cccc(C(C)(C)CN(C)C)c2)c1 [Ex. 21, 3-[(1-dimethylamino-2-methyl)prop-2-yl]-N-(3-methyl)phenyl phenylcarbamate]	0.6	0.5	–	–	–	–	–
COc1ccc(N(C)C(=O)Oc2cccc(C(C)(C)CN(C)C)c2)cc1 [Ex. 35, 3-[(1-dimethylamino-2-methyl)prop-2-yl]-N-methyl-N-(4-methoxy)phenyl phenylcarbamate]	0.013	> 100	equal or even superior to that of eptastigmine or of physostigmine	–	potent and selective AChE inhibitory activity	poor activity on the BuChE	LD50 [1, 4]: 3 mg/kg; LD50 [1, 5]: 40 mg/kg
CN(Cc1ccccc1)CC(C)(C)c1cccc(OC(=O)NCCCCCCCCN2CCOCC2)c1 [Ex. 16, 3-[(1-(N-benzyl-N-methyl)amino-2-methyl)prop-2-yl]-N-[8-(4-morpholinyl)-octyl]-phenylcarbamate]	4.8	0.007	–	14	–	–	–
CN(C)CC(C)(C)c1cccc(OC(=O)N(C)C2CCCCC2)c1 [Ex. 40, 3-[(1-dimethylamino-2-methyl)prop-2-yl]-N-cyclohexyl-N-methyl phenylcarbamate]	0.18	> 100	equal or even superior to that of eptastigmine or of physostigmine	–	potent and selective AChE inhibitory activity	poor activity on the BuChE	LD50 [1, 5]: > 40 mg/kg
COc1cc2nc(N3CCN(C(=O)CCCCCCCNC(=O)Oc4cccc(C(C)(C)CN(C)C)c4)CC3)nc(N)c2cc1OC [Ex. 12, 3-[(1-dimethylamino-2-methyl)prop-2-yl]-N-[1-[4-(4-amino-6,7-dimethoxy)quinazolin-2-yl]piperazinyl]-8-octanoyl]-phenyl carbamate]	0.08	0.05	equal or even superior to that of eptastigmine or of physostigmine	0.017	–	–	–
COc1cc2nc(NCCCCCCCNC(=O)Oc3cccc(C(C)(C)CN(C)C)c3)nc(N)c2cc1OC [Ex. 13, 3-[(1-dimethylamino-2-methyl)prop-2-yl]-N-[N-[(4-amino-6,7-dimethoxy)quinazolin-2-yl]aminoheptyl]-phenyl carbamate]	0.015	0.028	equal or even superior to that of eptastigmine or of physostigmine	0.023	–	–	–
CN(C)CC(C)(C)c1cccc(OC(=O)N(C)c2cccc(Cl)c2)c1 [Ex. 26, 3-[(1-dimethylamino-2-methyl)prop-2-yl]-N-(3-chloro)-phenyl-N-methyl-phenylcarbamate]	0.4	220	–	–	potent and selective AChE inhibitory activity	poor activity on the BuChE	–
CN(C)CC(C)(C)c1cccc(OC(=O)N(C)c2cccc(F)c2)c1 [Ex. 38, 3-[(1-dimethylamino-2-methyl)prop-2-yl]-N-(3-fluoro)phenyl-N-methyl phenylcarbamate]	0.05	> 100	equal or even superior to that of eptastigmine or of physostigmine	–	potent and selective AChE inhibitory activity	poor activity on the BuChE	LD50 [1, 5]: > 40 mg/kg
CN(C)CC(C)(C)c1cccc(OC(=O)N(C)c2ccc(Cl)cc2)c1 [Ex. 37, 3-[(1-dimethylamino-2-methyl)prop-2-yl]-N-(4-chloro)phenyl-N-methyl phenylcarbamate]	0.06	8	equal or even superior to that of eptastigmine or of physostigmine	–	potent and selective AChE inhibitory activity	poor activity on the BuChE	–
CN(C)CC(C)(C)c1cccc(OC(=O)Nc2cccc(F)c2)c1 [Ex. 20, 3-[(1-dimethylamino-2-methyl)prop-2-yl]-N-(3-fluoro)phenyl phenylcarbamate]	0.22	> 100	–	–	potent and selective AChE inhibitory activity	poor activity on the BuChE	–
CN(C)CC(C)(C)c1cccc(OC(=O)NCc2ccccc2)c1 [Ex. 24, 3-[(1-dimethylamino-2-methyl)prop-2-yl]-N-benzyl-phenylcarbamate]	0.06	0.0013	equal or even superior to that of eptastigmine or of physostigmine	–	–	–	–
CN(C)CC(C)(C)c1cccc(OC(=O)N(C)c2ccccc2)c1 [Ex. 25, 3-[(1-dimethylamino-2-methyl)prop-2-yl]-N-phenyl-N-methyl-phenylcarbamate]	1.7	> 1000	–	–	potent and selective AChE inhibitory activity	poor activity on the BuChE	LD50 ([2]; iv, read-out: Toxicity tests (LD50), mouse iv): 15 mg/kg; LD50 [1, 4]: 14 mg/kg; LD50 [1, 5]: 56 mg/kg
CCCCNC(=O)Oc1cccc(C(C)(C)CN(C)C)c1 [Ex. 4, 3-[(1-dimethylamino-2-methyl)prop-2-yl]-N-butylphenyl carbamate]	0.13	0.0016	equal or even superior to that of eptastigmine or of physostigmine	0.25	–	–	–
Nc1c2c(nc3ccccc13)CCCC2O (stereo not shown) [Velnacrine]	–	–	–	–	–	–	transaminase levels [3]: induce high transaminase levels
Nc1c2c(nc3ccccc13)CCCC2 [Tacrine, 9-amino-1,2,3,4-tetrahydroacridine]	–	–	–	–	–	–	transaminase levels [3]: induce high transaminase levels
CN(C)CC(C)(C)c1cccc(OC(=O)Nc2cccc(Cl)c2)c1 [Ex. 23, 3-[(1-dimethylamino-2-methyl)prop-2-yl]-N-(3-chloro)phenyl phenylcarbamate]	0.22	> 100	–	–	potent and selective AChE inhibitory activity	poor activity on the BuChE	–
C[C@@H]1CN(CCCCCCCCNC(=O)Oc2cccc(C(C)(C)CN(C)C)c2)C[C@H](C)O1 [Ex. 2, 3-[(1-dimethylamino-2-methyl)-prop-2-yl]-N-8-[[4-(cis2,6-dimethyl)morpholinyl]octyl]-phenylcarbamate]	0.42	0.02	–	1.1	–	–	LD50 ([2]; po, os, read-out: Toxicity tests (LD50), mouse os): > 50 mg/kg
CN(C)CC(C)(C)c1cccc(OC(=O)N(C)c2cccc(C(F)(F)F)c2)c1 [Ex. 39, 3-[(1-dimethylamino-2-methyl)prop-2-yl]-N-methyl-N-(3-trifluoromethyl) phenyl phenylcarbamate]	1.1	> 100	–	–	potent and selective AChE inhibitory activity	poor activity on the BuChE	–
